How the values were obtained:
[1] = tested on: MRC-5 cells; assay: TGFβ-stimulated αSMA expression in MRC-5 cells (HTRF); format: cell-based; parameters: key to Significant reduction in αSMA via HTRF compared to TGFβ alone: NS = no statistically significant change in aSMA expression; + = p < 0.05; ++ = p < 0.01; +++ = p < 0.005; ++++ = p < 0.001; conditions: for αSMA expression: combined with 0.01 ng/ml HGF; for Significant reduction in αSMA via HTRF compared to TGFβ alone: TGFβ 1 ng/ml, HGF 0.01 ng/ml, 48 h
Protocol: In this study, pulmonary-derived immortalized fibroblasts, MRC-5 cells, were cultured as a model of the early transition to fibrosis, and αSMA expression was measured using an immunodetection system driven by homogenous time-resolved fluorescence (HTRF) technology. This detection system produces a fluorescent signal in the presence of αSMA in cell lysates. Cells were grown to confluence in 96-well culture plates in complete media, and then transitioned to serum-free media for 2 hours. Next TGFβ (final 1 ng/ml in serum-free media) was added to the cells to stimulate the fibrotic transition. After 2 hours, media containing either HGF or HGF combined with one of the compounds was added to the cells. After incubation for 48 hours, cells were lysed and processed for αSMA HTRF to detect the levels of αSMA expression and compared to TGFβ-stimulated cultures. Statistical analysis consisted of 1-way ANOVA with a Dunnett's multiple comparison's post-test.

[2] = tested on: THP-1-differentiated macrophages; assay: Pro-inflammatory cytokine expression in LPS-challenged THP-1-differentiated macrophages; format: cell-based, human; parameters: key to IL-6, significant reduction in culture supernatant vs LPS treatment / TNF-α, significant reduction in culture supernatant vs LPS treatment / IL-1β, significant reduction in culture supernatant vs LPS treatment: “NS” indicates a non-significant reduction in the indicated cytokine; “+” indicates a p value <0.05 in Tukey post test; “++” indicates a p value <0.01 in Tukey post test; conditions: for IL-1β, significant reduction in culture supernatant vs LPS treatment / IL-6, significant reduction in culture supernatant vs LPS treatment / TNF-α, significant reduction in culture supernatant vs LPS treatment: 20 min pre-treatment, 24 hrs LPS; for expression of IL-1β and TNF-α / expression of IL-6: at at least one tested dose
Protocol: Differentiation with PMA causes THP-1 monocyte cells to acquire functional and morphological resemblance to macrophages. LPS interacts with THP-1 differentiated macrophage through the toll-like receptor 4, triggering the inflammatory response and stimulating pro-inflammatory cytokine release and eventually leading to cellular death. Compounds were tested to determine their anti-inflammatory effects on LPS-challenged macrophage cultures. THP-1-differentiated macrophages were treated with test compounds for 20 minutes, followed by 24 hrs of LPS challenge. Culture supernatants were then collected to analyzed for the presence of pro-inflammatory cytokines: […], interleukin 6 (IL-6) and tumor necrosis factor α (TNF-α).
Cytokine quantification in cell culture supernatants was accomplished by HTRF kits to assess levels of IL-1β (Human IL-1β kit, #62HIL1BPEG, Cisbio) and IL-6 (Human IL-6 kit, 62HIL06PET, Cisbio), and by ELISA to determine the levels of TNF-α (Human TNF-α ELISA kit, KHC3011, ThermoFisher).
Data analysis was performed via 1-way ANOVA with Tukey post-test compared to LPS treatment cultures using Prism statistical software (GraphPad). Tabular data indicates significance of reduction in culture supernatants for the indicated analyte at the indicated doses.

[3] = tested on: pulmonary LPS-stimulated rats; assay: Immune cell infiltration in BALF, LPS-induced acute pulmonary inflammation; format: in vivo; parameters: key to Total Leukocytes in BALF, reduction in cell count vs disease control / Neutrophils in BALF, reduction in cell count vs disease control: + = >5-25% improvement vs disease control; ++ = >26-50% improvement vs disease control; +++ = >51-100% improvement v disease control; NS means not significant; conditions: 24 h and 0.5 h before LPS; for Neutrophils in BALF, reduction in cell count vs disease control / Total Leukocytes in BALF, reduction in cell count vs disease control: BALF 4 h post LPS; for total leukocyte counts and neutrophil counts in BALF compared to LPS-only controls: IV
Description: Acute pulmonary inflammation can be effectively modeled in rats by intratracheal administration of bacterial lipopolysaccharides (LPS). Pulmonary inflammation that is left unresolved can lead to pulmonary fibrosis. The normal process of inflammation is regulated and promoted by expression, secretion, and distribution of inflammatory signaling proteins. Therapeutics intended to reduce inflammation are commonly identified by their ability to change the expression levels of inflammatory signaling molecules, either by disruption of the inflammatory pathway directly, or resolution of the inflammatory signaling cascade. The severity of inflammatory response can be measured by quantifying the amount of immune cell infiltration and secretion of cytokine signaling proteins in bronchoalveolar lavage fluid (BALF).
In this study, acute pulmonary inflammation was induced in healthy male Sprague-Dawley rats (7-9 weeks old at study start) by intratracheal instillation of […] LPS in saline. Test animals were treated with test compounds twice, at 24 hours and 0.5 hours before LPS treatment by intravenous (IV) injection. […] Four hours post LPS administration, animals were euthanized by intraperitoneal injection of thiopentone and 20 mL of cold Hanks Balanced Salt Solution, pH 7.2, was infused into the lungs through tracheal cannulation. BALF was then collected.
Immune cell infiltration was performed by counting total leukocytes using a MUSE® mini flow cytometer, and by manual counting of neutrophil cells in cytospin smears stained with Leishman's staining reagent.

[4] = tested on: pulmonary LPS-stimulated rats; assay: Cytokine expression in BALF supernatant (multiplex immunoassay), LPS-induced acute pulmonary inflammation; format: in vivo; conditions: for cytokines with significant changes in expression in BALF supernatant versus LPS-only animals: p<0.05, Student's T-test, any tested dose
[5] = 0.075 mg/kg IV, 24 h and 0.5 h before LPS
[6] = 0.75 mg/kg IV, 24 h and 0.5 h before LPS
[7] = 7.5 mg/kg IV, 24 h and 0.5 h before LPS

Structure (SMILES)	αSMA expression ([1]; 1 uM)	Significant reduction in αSMA via HTRF compared to TGFβ alone ([1]; test compound 1 nM)	Significant reduction in αSMA via HTRF compared to TGFβ alone ([1]; test compound 1 μM)	IL-1β, significant reduction in culture supernatant vs LPS treatment ([2]; 0.1 nM)	IL-6, significant reduction in culture supernatant vs LPS treatment ([2]; 0.1 nM)	TNF-α, significant reduction in culture supernatant vs LPS treatment ([2]; 0.1 nM)	IL-1β, significant reduction in culture supernatant vs LPS treatment ([2]; 10 nM)	IL-6, significant reduction in culture supernatant vs LPS treatment ([2]; 10 nM)	TNF-α, significant reduction in culture supernatant vs LPS treatment ([2]; 10 nM)	IL-1β, significant reduction in culture supernatant vs LPS treatment ([2]; 1000 nM)	IL-6, significant reduction in culture supernatant vs LPS treatment ([2]; 1000 nM)	TNF-α, significant reduction in culture supernatant vs LPS treatment ([2]; 1000 nM)	expression of IL-1β and TNF-α [2]	expression of IL-6 [2]	Neutrophils in BALF, reduction in cell count vs disease control ([3]; 0.075 mg/kg IV)	Total Leukocytes in BALF, reduction in cell count vs disease control ([3]; 0.075 mg/kg IV)	Neutrophils in BALF, reduction in cell count vs disease control ([3]; 0.75 mg/kg IV)	Total Leukocytes in BALF, reduction in cell count vs disease control ([3]; 0.75 mg/kg IV)	total leukocyte counts and neutrophil counts in BALF compared to LPS-only controls [3]	IFN-γ, significant change in cytokine expression in BALF supernatant [4, 5]	further results
CCC(C)CN1CC2N(C(=O)c3ccc(C(F)(F)F)cc3)CCC(=O)N2[C@@H](C)C1=O (some centres unmarked) [Compound 1a]	significantly reduced αSMA	NS	++++ (++++ = p < 0.001)	++ (“++” indicates a p value <0.01 in Tukey post test)	NS	++ (“++” indicates a p value <0.01 in Tukey post test)	++ (“++” indicates a p value <0.01 in Tukey post test)	++ (“++” indicates a p value <0.01 in Tukey post test)	++ (“++” indicates a p value <0.01 in Tukey post test)	++ (“++” indicates a p value <0.01 in Tukey post test)	+ (“+” indicates a p value <0.05 in Tukey post test)	++ (“++” indicates a p value <0.01 in Tukey post test)	significantly reduced	significantly reduced	+ (+ = >5% reduction in cell count vs disease control)	+ (+ = >5% reduction in cell count vs disease control)	NS	NS	reduced both total leukocyte counts and neutrophil counts	+ (+ = Significant change in cytokine quantification, p < 0.05 by Student's T-test)	CXCL10, significant change in cytokine expression in BALF supernatant [4, 5]: + (+ = Significant change in cytokine quantification, p < 0.05 by Student's T-test); CXCL2, significant change in cytokine expression in BALF supernatant [4, 6]: + (+ = Significant change in cytokine quantification, p < 0.05 by Student's T-test); CXCL10, significant change in cytokine expression in BALF supernatant [4, 6]: + (+ = Significant change in cytokine quantification, p < 0.05 by Student's T-test); G-CSF, significant change in cytokine expression in BALF supernatant [4, 6]: + (+ = Significant change in cytokine quantification, p < 0.05 by Student's T-test); IL-1β, significant change in cytokine expression in BALF supernatant [4, 6]: + (+ = Significant change in cytokine quantification, p < 0.05 by Student's T-test); cytokines with significant changes in expression in BALF supernatant versus LPS-only animals [4]: G-CSF, CXCL2, CXCL10, IFN-γ, and IL-1β
CCC(C)CN1CC2N(Cc3ccc(C(F)(F)F)cc3)CCC(=O)N2[C@@H](C)C1=O (some centres unmarked) [Compound 5a]	significantly reduced αSMA	+ (+ = p < 0.05)	++++ (++++ = p < 0.001)	++ (“++” indicates a p value <0.01 in Tukey post test)	NS	NS	++ (“++” indicates a p value <0.01 in Tukey post test)	+ (“+” indicates a p value <0.05 in Tukey post test)	NS	++ (“++” indicates a p value <0.01 in Tukey post test)	++ (“++” indicates a p value <0.01 in Tukey post test)	+ (“+” indicates a p value <0.05 in Tukey post test)	significantly reduced	significantly reduced	++ (++ = >25% reduction in cell count vs disease control)	++ (++ = >25% reduction in cell count vs disease control)	+ (+ = >5% reduction in cell count vs disease control)	+ (+ = >5% reduction in cell count vs disease control)	reduced both total leukocyte counts and neutrophil counts	+ (+ = Significant change in cytokine quantification, p < 0.05 by Student's T-test)	αSMA expression ([1]; 1 nM): significantly reduced αSMA; Neutrophils in BALF, reduction in cell count vs disease control ([3]; 7.5 mg/kg IV): + (+ = >5% reduction in cell count vs disease control); Total Leukocytes in BALF, reduction in cell count vs disease control ([3]; 7.5 mg/kg IV): + (+ = >5% reduction in cell count vs disease control); CCL3, significant change in cytokine expression in BALF supernatant [4, 5]: + (+ = Significant change in cytokine quantification, p < 0.05 by Student's T-test); CX3CL1, significant change in cytokine expression in BALF supernatant [4, 5]: + (+ = Significant change in cytokine quantification, p < 0.05 by Student's T-test); EGF, significant change in cytokine expression in BALF supernatant [4, 5]: + (+ = Significant change in cytokine quantification, p < 0.05 by Student's T-test); IL-1α, significant change in cytokine expression in BALF supernatant [4, 5]: + (+ = Significant change in cytokine quantification, p < 0.05 by Student's T-test); IL-1β, significant change in cytokine expression in BALF supernatant [4, 5]: + (+ = Significant change in cytokine quantification, p < 0.05 by Student's T-test); IL-10, significant change in cytokine expression in BALF supernatant [4, 5]: + (+ = Significant change in cytokine quantification, p < 0.05 by Student's T-test); IL-12p70, significant change in cytokine expression in BALF supernatant [4, 5]: + (+ = Significant change in cytokine quantification, p < 0.05 by Student's T-test); IL-17A, significant change in cytokine expression in BALF supernatant [4, 5]: + (+ = Significant change in cytokine quantification, p < 0.05 by Student's T-test); IFN-γ, significant change in cytokine expression in BALF supernatant [4, 6]: + (+ = Significant change in cytokine quantification, p < 0.05 by Student's T-test); IL-1α, significant change in cytokine expression in BALF supernatant [4, 6]: + (+ = Significant change in cytokine quantification, p < 0.05 by Student's T-test); IL-1β, significant change in cytokine expression in BALF supernatant [4, 6]: + (+ = Significant change in cytokine quantification, p < 0.05 by Student's T-test); IL-10, significant change in cytokine expression in BALF supernatant [4, 6]: + (+ = Significant change in cytokine quantification, p < 0.05 by Student's T-test); IL-17A, significant change in cytokine expression in BALF supernatant [4, 6]: + (+ = Significant change in cytokine quantification, p < 0.05 by Student's T-test); IL-1α, significant change in cytokine expression in BALF supernatant [4, 7]: + (+ = Significant change in cytokine quantification, p < 0.05 by Student's T-test); IL-10, significant change in cytokine expression in BALF supernatant [4, 7]: + (+ = Significant change in cytokine quantification, p < 0.05 by Student's T-test); cytokines with significant changes in expression in BALF supernatant versus LPS-only animals [4]: CCL3, CXCL1, IFN-γ, IL-1α, IL-1β, IL-10, IL-12p70, and IL-17A
